Starred links: 1 amine or outer side, 2 acyl side, 3 side chain; linkers in the order of their positions; H or OH if unused. Non-standard residues stand in square brackets, D forms with d. Residues, ends and D or L forms follow the SMILES beside them. *: point of attachment. Dolaproine = CO[C@@H]([C@@H]1CCCN1)[C@@H](C)C(=O)O; X11 = O=C([C@@H](N[*:1])[C@H]1Cc2ccccc21)[*:2]; X2 = O=C([C@H](N[*:1])C1(c2ccccc2)CC1)[*:2]; Dil = CC[C@H](C)[C@H](NC)[C@@H](CC(=O)O)OC; Phe(4-NH2) = Nc1ccc(C[C@H](N)C(=O)O)cc1; X9 = Cc1cc(-c2nc3cc(F)ccc3s2)ccc1N*; d(αMeV) = CC(C)[C@@](C)(N)C(=O)O; d(αMeP) = C[C@]1(C(=O)O)CCCN1; αMeP = C[C@@]1(C(=O)O)CCCN1; X13 = c1ccc(C2(CN*)CC2)cc1; X1 = CN1CCC[C@]1(C)C(=O)*; NMeAib = CNC(C)(C)C(=O)O; X4 = CN(C)C(C)(C)C(=O)*; X8 = C1=CC=CC(CCN*)C=C1; Aib = CC(C)(N)C(=O)O; NHtBu = CC(C)(C)N*; OtBu = CC(C)(C)O*; OAll = C=CCO*
Columns and labels:
Test in all cases: In vitro cell assay, MTS cell viability 96 hours after treatment
Assay type in all cases: cell-based
[1] = test system: BT474 (breast cancer); details: Homo sapiens, BT-474, BT474 cells; geometric mean; cytotoxic peptides; read-out: BT474 GMEAN IC50
Protocol: (§1) Cells were treated with 3-fold serially diluted antibody-drug conjugates or free compounds (i.e., no antibody conjugated to the drug) in duplicate at 10 concentrations. Cell viability was determined by CellTiter 96® AQueous One Solution Cell Proliferation MTS Assay (Promega, Madison Wis.) 96 hours after treatment. Relative cell viability was determined as percentage of untreated control.

[2] = test system: MDA-MB-361-DYT2 (breast cancer); details: read-out: MDA-MB-361-DYT2 GMEAN IC50, MDA-MB-361-DYT2 cells; geometric mean; cytotoxic peptides
Protocol: as §1

[3] = test system: N87 (gastric cancer); details: read-out: N87 GMEAN IC50, N87 cells; geometric mean; cytotoxic peptides
Protocol: as §1

SMILES	IC50 [1] [nM]	IC50 [2] [nM]	IC50 [3] [nM]
CC[C@H](C)[C@@H]([C@@H](CC(=O)N1CCC[C@H]1[C@H](OC)[C@@H](C)C(=O)N[C@@H](Cc1ccccc1)C(=O)OC)OC)N(C)C(=O)[C@@H](NC(=O)[C@]1(C)CCCCN1)C(C)C (single isomer, unassigned) [#158]	0.082	0.1	0.115
CC[C@H](C)[C@@H]([C@@H](CC(=O)N1CCC[C@H]1[C@H](OC)[C@@H](C)C(=S)N[C@@H](Cc1ccccc1)c1nccs1)OC)N(C)C(=O)[C@@H](NC(=O)C1(N)CCCC1)C(C)C [#30, N^2-[(1-aminocyclopentyl)carbonyl]-N-[(3R,4S,5S)-3-methoxy-1-{(2S)-2-[(1R,2R)-1-methoxy-2-methyl-3-{[(1S)-2-phenyl-1-(1,3-thiazol-2-yl)ethyl]amino}-3-thioxopropyl]pyrrolidin-1-yl}-5-methyl-1-oxoheptan-4-yl]-N-methyl-L-valinamide]	0.682	1.85	6.71
CC[C@H](C)[C@@H]([C@@H](CC(=O)N1CCC[C@H]1[C@H](OC)[C@@H](C)C(=O)NCC1(c2ccccc2)CC1)OC)N(C)C(=O)[C@@H](NC(=O)C(C)(C)N)C(C)C [#60, 2-methylalanyl-N-[(3R,4S,5S)-3-methoxy-1-{(2S)-2-[(1R,2R)-1-methoxy-2-methyl-3-oxo-3-{[(1-phenylcyclopropyl)methyl]amino}propyl]pyrrolidin-1-yl}-5-methyl-1-oxoheptan-4-yl]-N-methyl-L-valinamide] (H-[Aib]V[Dil][Dolaproine]-X13)	0.524	0.957	–
CC[C@H](C)[C@@H]([C@@H](CC(=O)N1CCC[C@H]1[C@H](OC)[C@@H](C)C(=O)N[C@@H](Cc1ccccc1)C(=O)OC)OC)N(C)C(=O)[C@@H](NC(=O)[C@]1(C)CCCN1)C(C)C [#117, 2-methyl-L-prolyl-N-{(1S,2R)-4-{(2S)-2-[(1R,2R)-3-{[(1S)-1-benzyl-2-methoxy-2-oxoethyl]amino}-1-methoxy-2-methyl-3-oxopropyl]pyrrolidin-1-yl}-2-methoxy-1-[(1S)-1-methylpropyl]-4-oxobutyl}-N-methyl-L-valinamide] (H-[αMeP]V[Dil][Dolaproine]F-OMe)	0.096	0.118	–
CC[C@H](C)[C@@H]([C@@H](CC(=O)N1CCC[C@H]1[C@H](OC)[C@@H](C)C(=O)N[C@@H](Cc1ccccc1)C(=O)OC(C)(C)C)OC)N(C)C(=O)[C@@H](NC(=O)C(C)(C)NC)C(C)C [#130, N,2-dimethylalanyl-N-[(3R,4S,5S)-1-{(2S)-2-[(1R,2R)-3-{[(2S)-1-tert-butoxy-1-oxo-3-phenylpropan-2-yl]amino}-1-methoxy-2-methyl-3-oxopropyl]pyrrolidin-1-yl}-3-methoxy-5-methyl-1-oxoheptan-4-yl]-N-methyl-L-valinamide] (H-[NMeAib]V[Dil][Dolaproine]F-OtBu)	0.05	0.039	–
CC[C@H](C)[C@@H]([C@@H](CC(=O)N1CCC[C@H]1[C@H](OC)[C@@H](C)C(=O)N[C@@H](Cc1ccccc1)C(=O)NC(C)(C)C)OC)N(C)C(=O)[C@@H](NC(=O)C(C)(C)NC)C(C)C [#144, N,2-dimethylalanyl-N-{(1S,2R)-4-{(2S)-2-[(1R,2R)-3-{[(1S)-1-benzyl-2-(tert-butylamino)-2-oxoethyl]amino}-1-methoxy-2-methyl-3-oxopropyl]pyrrolidin-1-yl}-2-methoxy-1-[(1S)-1-methylpropyl]-4-oxobutyl}-N-methyl-L-valinamide] (H-[NMeAib]V[Dil][Dolaproine]F-NHtBu)	0.172	0.174	–
CC[C@H](C)[C@@H]([C@@H](CC(=O)N1CCC[C@H]1[C@H](OC)[C@@H](C)C(=O)N[C@@H](Cc1ccccc1)C(=O)OC)OC)N(C)C(=O)[C@@H](NC(=O)[C@](C)(N)C(C)C)C(C)C [#146, 3-methyl-D-isovalyl-N-{(1S,2R)-4-{(2S)-2-[(1R,2R)-3-{[(1S)-1-benzyl-2-methoxy-2-oxoethyl]amino}-1-methoxy-2-methyl-3-oxopropyl]pyrrolidin-1-yl}-2-methoxy-1-[(1S)-1-methylpropyl]-4-oxobutyl}-N-methyl-L-valinamide] (H-[d(αMeV)]V[Dil][Dolaproine]F-OMe)	0.435	–	0.195
CC[C@H](C)[C@@H]([C@@H](CC(=O)N1CCC[C@H]1[C@H](OC)[C@@H](C)C(=O)NCCC1C=CC=CC=C1)OC)N(C)C(=O)[C@@H](NC(=O)[C@@]1(C)CCCCN1)C(C)C [#180, (2R)—N-[(2S)-1-{[(3R,4S,5S)-1-{(2S)-2-[(1R,2R)-3-{[2-(cyclohepta-2,4,6-trien-1-yl)ethyl]amino}-1-methoxy-2-methyl-3-oxopropyl]pyrrolidin-1-yl}-3-methoxy-5-methyl-1-oxoheptan-4-yl](methyl)amino}-3-methyl-1-oxobutan-2-yl]-2-methylpiperidine-2-carboxamide]	0.159	0.113	–
CC[C@H](C)[C@@H]([C@@H](CC(=O)N1CCC[C@H]1[C@H](OC)[C@@H](C)C(=O)N[C@@H](Cc1ccccc1)c1nccs1)OC)N(C)C(=O)[C@@H](NC(=O)[C@@]1(C)CCCCN1)C(C)C [#190, (2R)—N-[(2S)-1-{[(3R,4S,5S)-3-methoxy-1-{(2S)-2-[(1R,2R)-1-methoxy-2-methyl-3-oxo-3-{[(1S)-2-phenyl-1-(1,3-thiazol-2-yl)ethyl]amino}propyl]pyrrolidin-1-yl}-5-methyl-1-oxoheptan-4-yl](methyl)amino}-3-methyl-1-oxobutan-2-yl]-2-methylpiperidine-2-carboxamide]	0.134	–	0.066
CC[C@H](C)[C@@H]([C@@H](CC(=O)N1CCC[C@H]1[C@H](OC)[C@@H](C)C(=O)N[C@@H](Cc1ccccc1)c1nccs1)OC)N(C)C(=O)[C@@H](NC(=O)[C@@]1(F)CCNC1)C(C)C [#192, N˜2˜-{[(3R)-3-fluoropyrrolidin-3-yl]carbonyl}-N-[(3R,4S,5S)-3-methoxy-1-{(2S)-2-[(1R,2R)-1-methoxy-2-methyl-3-oxo-3-{[(1S)-2-phenyl-1-(1,3-thiazol-2-yl)ethyl]amino}propyl]pyrrolidin-1-yl}-5-methyl-1-oxoheptan-4-yl]-N-methyl-L-valinamide]	0.262	0.408	–
CC[C@H](C)[C@@H]([C@@H](CC(=O)N1CCC[C@H]1[C@H](OC)[C@@H](C)C(=O)N[C@@H](Cc1ccccc1)c1nccs1)OC)N(C)C(=O)[C@@H](NC(=O)[C@]1(F)CCNC1)C(C)C [#194, N˜2˜-{[(3S)-3-fluoropyrrolidin-3-yl]carbonyl}-N-[(3R,4S,5S)-3-methoxy-1-{(2S)-2-[(1R,2R)-1-methoxy-2-methyl-3-oxo-3-{[(1S)-2-phenyl-1-(1,3-thiazol-2-yl)ethyl]amino}propyl]pyrrolidin-1-yl}-5-methyl-1-oxoheptan-4-yl]-N-methyl-L-valinamide]	0.134	0.198	–
CC[C@H](C)[C@@H]([C@@H](CC(=O)N1CCC[C@H]1[C@H](OC)[C@@H](C)C(=O)N[C@@H](Cc1ccc(N)cc1)C(=O)OC)OC)N(C)C(=O)[C@@H](NC(=O)[C@@]1(C)CCCN1C)C(C)C [#201, 1,2-dimethyl-D-prolyl-N-[(3R,4S,5S)-1-{(2S)-2-[(1R,2R)-3-{[(2S)-3-(4-aminophenyl)-1-methoxy-1-oxopropan-2-yl]amino}-1-methoxy-2-methyl-3-oxopropyl]pyrrolidin-1-yl}-3-methoxy-5-methyl-1-oxoheptan-4-yl]-N-methyl-L-valinamide] (X1-V[Dil][Dolaproine][Phe(4-NH2)]-OMe)	0.144	0.121	–
CC[C@H](C)[C@@H]([C@@H](CC(=O)N1CCC[C@H]1[C@H](OC)[C@@H](C)C(=O)N[C@@H](C(=O)OC)C1(c2ccccc2)CC1)OC)N(C)C(=O)[C@@H](NC(=O)C(C)(C)N)C(C)C [#222] (H-[Aib]V[Dil][Dolaproine][X2]-OMe)	0.158	–	0.352
CC[C@H](C)[C@@H]([C@@H](CC(=O)N1CCC[C@H]1[C@H](OC)[C@@H](C)C(=O)N[C@H](C(=O)OC)[C@H]1Cc2ccccc21)OC)N(C)C(=O)[C@@H](NC(=O)C(C)(C)N)C(C)C [#225] (H-[Aib]V[Dil][Dolaproine][X11]-OMe)	3.45	–	10.5
CC[C@H](C)[C@@H]([C@@H](CC(=O)N1CCC[C@H]1[C@H](OC)[C@@H](C)C(=O)N[C@@H](Cc1ccccc1)C(=O)OC)OC)N(C)C(=O)[C@@H](NC(=O)C(C)(C)N(C)C)C(C)C [#228] (X4-V[Dil][Dolaproine]F-OMe)	0.105	–	0.09
CC[C@H](C)[C@@H]([C@@H](CC(=O)N1CCC[C@H]1[C@H](OC)[C@@H](C)C(=O)N[C@@H](Cc1ccccc1)C(=O)Nc1ccc(-c2nc3cc(F)ccc3s2)cc1C)OC)N(C)C(=O)[C@@H](NC(=O)C(C)(C)N)C(C)C [#235] (H-[Aib]V[Dil][Dolaproine]F-X9)	0.852	1.28	–
C=CCOC(=O)[C@H](Cc1ccccc1)NC(=O)[C@H](C)[C@@H](OC)[C@@H]1CCCN1C(=O)C[C@@H](OC)[C@H]([C@@H](C)CC)N(C)C(=O)[C@@H](NC(=O)C(C)(C)NC)C(C)C [#238] (H-[NMeAib]V[Dil][Dolaproine]F-OAll)	0.139	–	0.077
CC[C@H](C)[C@@H]([C@@H](CC(=O)N1CCC[C@H]1[C@H](OC)[C@@H](C)C(=O)NCCC1C=CC=CC=C1)OC)N(C)C(=O)[C@@H](NC(=O)[C@@]1(C)CCCN1)C(C)C [#247] (H-[d(αMeP)]V[Dil][Dolaproine]-X8)	1.01	–	2.06
